In patent US20060172941A1, “Anti-angiogenic peptides and methods of use thereof” (priority 2004, published 2006):
Entries after “also recorded” stand apart in the source; their conditions may differ. Where no end group is shown, it is not given here. [ ]: non-standard residue; d: D form.

Tests used:
[1] = Heparin binding activity, Hi Trap Heparin HP column, NaCl step elution; details: for [NaCl] for elution: heparin column, step gradient in 10 mM NaH2PO4 pH 7
Text: Liquid chromatography was used to determine the relative levels of heparin binding activity of the individual heparin binding domains and of the anti-angiogenic miniproteins that contains them. In this assay, the strength of the heparin binding activity is proportional to the amount of NaCl that is required to elute the peptide bound to the heparin column. Peptides with low binding activity are eluted with lower NaCl concentration, whereas higher concentrations of NaCl are required for peptides with higher binding activity.
Hi Trap Heparin HP column (1 ml, Amersham Biosciences) was equilibrated with 10 column volumes (CV) of equilibration (EQ) buffer=10 mM NaH2PO4 pH 7. All buffers were loaded onto columns via syringes. 500 μl fractions are collected (flow rate=1 ml/minute). 500 μg of peptide (1 mg/ml, resuspended in EQ buffer) was added to each column and the flow through was collected for analysis. The columns were then washed with 3 CV of EQ buffer. Peptides are then eluted with a step gradient of 500, 625, 750, 875 mM NaCl in EQ buffer, 2 CV per each step. A final step of 3 CV of 1000 mM NaCl in EQ buffer was collected in 500 μl fractions. The A210 nm was measured using EQ and elution buffers as blanks.

[2] = test system: L1210 murine leukemia cells; test: L1210 murine leukemia intravenous model, survival; format: in vivo, mouse; details: dosed IP, FIG. 15a
Description: Antitumor activity of test peptides, administered intraperitoneally (IP), were evaluated against L1210 murine leukemia cells implanted intravenously (IV) in DBA/2 mice.
Studies generally consisted of randomly-assigned groups of 8 mice per group, which were inoculated IV with 1×10^5 cells per mouse from an in vivo leukemia cell line. In addition to groups tested with test peptides, studies usually included a vehicle-treated control group and a positive control group treated with an agent known to be active in the L1210 leukemia model. Starting one day after tumor inoculation (inoculation day defined as Day 0), mice were treated IP with either vehicle or test peptides in various schedules. Generally this consisted of treatment every other day for approximately 1 week (e.g., Days 1, 3, 5 and 7). A positive agent (e.g., cyclophosphamide) was usually given as a single IP injection on Day 1. All dosing solutions were prepared on each day of treatment. Survival was monitored daily and body weights were measured twice weekly. Anti-tumor activity was assessed by the increase in lifespan of the treated groups in comparison to the vehicle-treated control group. Studies with the L1210 leukemia model were limited to 30 days.

[3] = test system: Human Umbilical Vein Endothelial Cells; test: bFGF-mediated survival/proliferation of human umbilical vein endothelial cells (WST1); format: cell-based; details: FIG. 6, 9, 10, 17
Description: (§1) The anti-angiogenic activities of the peptides were tested by measuring the level of inhibition of VEGF and bFGF mediated survival/proliferation of Bovine Retinal Endothelial Cells (BRE), Human Dermal Microvasculature Endothelial Cells, and Human Umbilical Vein Endothelial Cells, all of which are standard cell lines used to test anti-angiogenic compounds.
Human umbilical cord endothelial (HUVEC) cells were maintained in Cambrex EGM-2MV media. On day one, cells were starved overnight in 1% FBS in M200 media (Cascade Biologicals). The morning after, the media were replaced with serum-free media (control) or media containing 25 ng/ml of human VEGF165 and the various peptides to final concentrations as described.
(§2) In all cases, after 72 hours incubation, the amount of live cells in each well was measured with the WST1 assay (Roche).

tumor cells = test: Ability to induce tumor cell death (general statement); format: cell-based
Description: Peptides to be tested were prepared at a stock concentration of 10 mM in sterile phosphate buffered saline. Cancer cell lines obtained from the American Type Culture Collection (MG-63, HT1080, A498, BxPC3, 786-0, PC-3, B16F1, B16F10, P388D1, Jurkat, MOLT4, THP-1, U-937, L1210, RPMI 8226, NCI H929, U266B1, K562) were cultured under appropriate conditions as described in the literature. Cell culture media and reagents were obtained from ATCC (Manassas, Va.), Invitrogen (Carlsbad, Calif.) or Mediatech (Herndon, Va.). Exponentially growing cultures were used for cell proliferation assays. […] After incubation, the relative number of cells was determined using WST-1 (Roche Applied Science). […] The plate was immediately read at 440 nm using a Bio-Tek PowerWave XS microplate reader, incubated for 2-3 hours at 37° C. and then read again. Cell proliferation was determined as the percent of the control cell proliferation. The absorbance of each well at time 0 was subtracted from the value of the final reading. […] Finally, each test absorbance was divided by the average of the control absorbances and multiplied by 100 to obtain the percent of control.

L1210 = test: Tumor cell proliferation (WST-1), L1210; format: cell-based, mouse; details: FIG. 11
Description: Peptides to be tested were prepared at a stock concentration of 10 mM in sterile phosphate buffered saline. Cancer cell lines obtained from the American Type Culture Collection (MG-63, HT1080, A498, BxPC3, 786-0, PC-3, B16F1, B16F10, P388D1, Jurkat, MOLT4, THP-1, U-937, L1210, RPMI 8226, NCI H929, U266B1, K562) were cultured under appropriate conditions as described in the literature. Cell culture media and reagents were obtained from ATCC (Manassas, Va.), Invitrogen (Carlsbad, Calif.) or Mediatech (Herndon, Va.). Exponentially growing cultures were used for cell proliferation assays. Adherent cells were plated at a concentration of 100000 cells per milliter in growth media overnight (18-24 h) and treated the next day in a low serum media (growth media with 1% FBS for MG-63, HT1080, A498, BxPC3, PC-3, B16F1, B16F10. 786-0 cells were treated in media with 5% FBS). Suspension cell lines (P388D1, Jurkat, MOLT4, THP-1, U-937, L1210, RPMI 8226, NCI H929, U266B1, and K562) were diluted to a concentration of 100,000 cells per ml and treated on the same day with peptides. Peptides were diluted in treatment media and cells were treated for 48 or 72 hours depending on the cell line. Each dose was tested in triplicate for each experiment, and experiments were repeated for a minimum of three discrete times. After incubation, the relative number of cells was determined using WST-1 (Roche Applied Science). A 9.5 μl aliquot of WST-1 was added to each well. The plate was immediately read at 440 nm using a Bio-Tek PowerWave XS microplate reader, incubated for 2-3 hours at 37° C. and then read again. Cell proliferation was determined as the percent of the control cell proliferation. The absorbance of each well at time 0 was subtracted from the value of the final reading. Afterwards the blank values were averaged and subtracted from each test and control value. Finally, each test absorbance was divided by the average of the control absorbances and multiplied by 100 to obtain the percent of control. […]

[4] = test system: RPMI-8226 human myeloma xenografts; test: RPMI-8226 human myeloma subcutaneous xenograft model; format: in vivo, mouse; details: scid mice, FIG. 16
Description: Anti-tumor efficacy of test peptides was evaluated against RPMI-8226 human myeloma xenografts implanted subcutaneously (sc) in severe compromised immunodeficient (scid) mice.
Studies generally consisted of randomly-assigned groups of 8 or 10 mice per group, which were implanted sc with myeloma fragments (30-40 mg). In addition to groups tested with test peptides, studies usually included a vehicle-treated control group and a positive control group treated with an agent known to be active in the RPMI-8226 model. In one type of schedule, mice were treated IP with either vehicle or test peptides starting one day after tumor implantation (implantation day defined as Day 0). Test peptides and vehicle were generally administered IP daily for 3-4 weeks.
Dosing solutions of the test peptides were prepared weekly and kept at −20° C. between injections. […] Each tumor was measured by caliper in two dimensions and converted to tumor mass using the formula for a prolate ellipsoid (a X b^2/2), where a is the longer dimension and b is the smaller dimension, and assuming unit density (1 mm^3=1 mg). Tumor measurements were recorded twice weekly. Body weights were also recorded twice weekly. Anti-tumor activity was assessed by the delay in tumor growth of the treated groups in comparison to the vehicle-treated control group, partial and complete regressions, and tumor-free survivors. […]

[5] = test system: Human Dermal Microvasculature Endothelial Cells; test: VEGF-mediated survival/proliferation of human dermal microvasculature endothelial cells; format: cell-based; details: 30, 100, and 200 μg/ml, FIG. 8
Description: as §1, §2
(§3) In a further experiment, the anti-angiogenic activity of peptide ST100,061 (SEQ ID NO.: 3), a derivative of ST100,032 (SEQ-ID NO.: 1), at concentrations of 30, 100, and 200 μg/ml was tested by measuring the level of inhibition of VEGF and bFGF mediated survival/proliferation in human dermal microvasculature endothelial cells.

B16-F1 melanoma cells = test: Subcutaneous B16 melanoma tumor growth in vivo; set-up: species or system mouse; details: 20 mg/kg daily IP; for Inhibition of tumor growth: vs untreated controls, FIG. 12 and 14
Description: Because of the importance of the angiogenic process for tumorigenesis, miniproteins as described herein, were hypothesized to show good anti-tumor activity. The peptides of the invention were tested in an in vivo model of anti-tumor activity. This model compares the growth of subcutaneous B16 melanoma tumor in vivo either untreated or treated with various amount of miniproteins described in this application. This model is widely accepted in the art as a model to test the anti-tumor activity of compounds that inhibit tumor growth because they have anti-angiogenic activity.
Male C57BL/6 mice were obtained with a mean body weight of 20±2 g. Mouse B16-F1 melanoma cells were implanted subcutaneously (5×10^5 cell per animal). Peptides (formulated in water) were administered ip daily at the amount indicated starting the day after cells injection. In general, tumors became palpable around 9 days after injection of cells. Tumor were then measured every 2 days.

[6] = test system: Human Dermal Microvasculature Endothelial Cells; test: bFGF-mediated survival/proliferation of human dermal microvasculature endothelial cells; format: cell-based; details: 30, 100, and 200 μg/ml, FIG. 8
Description: as §1, §2, §3

[7] = test system: Bovine Retinal Endothelial Cells (BRE); test: VEGF-mediated survival/proliferation of bovine retinal endothelial cells (WST1); format: cell-based; details: VEGF 25 ng/ml, 72 hours, FIG. 4 and 5
Description: as §1
Bovine retinal endothelial (BRE) cells were maintained in Cambrex EG2 media. For non-adherent cell assays, on day one cells were starved for either 6 hours or overnight, then trypsinized and plated in 96-well plates in 100 μl of Optimem plus 1% fetal bovine serum (FBS). One hundred μl of Optimem plus 1% FBS was added to the wells containing, where appropriate, VEGF to a final concentration of 25 ng/ml, and the various peptides to final concentrations as described. For adherent cells, cells were plated in 96-well plates in complete media, allowed to adhere overnight, washed in starvation media (Optimem plus 1% FBS) and then starved during the day. At the end of the day, 100 μl of Optimem plus 1% FBS was added to the wells containing, where appropriate, VEGF to a final concentration of 25 ng/ml and the various peptides to final concentrations as described.
as §2

[8] = Biological activity of D-amino acid versions of ST100,038 (test not specified); details: tested against a control
Description: D-amino acid peptides can be made by generating a D-amino acid peptide with the same sequence as a L-amino acid peptide or by preparing a retro inverso form of a peptide. ST100,045 (SEQ ID NO.: 31) has the same sequence as ST100,038 (SEQ ID NO.: 29) was tested against ST100,059 (SEQ ID NO.: 30) which is the retro inverso version of ST100,038 and a control.

Sequence | heparin binding activity (comparison in words) [1] | [NaCl] for elution [1] [mM] | Survival ([2]; DBA/2 mice) | mice (cured mice) that survived longer than 30 days [2] | Inhibition of bFGF-mediated survival [3] | ability to induce tumor cell death (comparison in words) (tumor cells) | Inhibition of proliferation of mouse leukemia L1210 cells (L1210) | Inhibition of tumor growth ([4]; 25 mg/kg daily IP) | Inhibition of VEGF mediated survival/proliferation [5] | Inhibition of tumor growth (B16-F1 melanoma cells) | Inhibition of bFGF mediated survival/proliferation [6] | P (ANOVA) of tumor growth inhibition (B16-F1 melanoma cells; FIG. 12) | Inhibition of VEGF-mediated survival/proliferation [7] | biological activity [8] | Inhibition of tumor growth ([4]; 100 mg/kg daily IP)
RRGRAARRGRAAKKKRLGYVVSDGRGDYP [ST100,064, retro-inverso form of ST100,061] | much more active; also recorded: bind less strongly than ST100,082 | 875 | statistically significant increases in survival | Sixty to eighty | can inhibit bFGF mediated survival as effectively as ST100,061; also recorded: the most active in inhibiting bFGF stimulation | much more active | able to block cell proliferation and induce cell death | able to inhibit tumor growth | – | – | – | – | – | – | –
PYDGRGDSVVYGLRKKKAARGRRAARGRR (listed as Homo sapiens) [ST100,061] | – | – | – | – | – | – | – | – | effective in inhibiting both VEGF and bFGF | may be less active | effective in inhibiting both VEGF and bFGF | – | – | – | –
PSQSSHPPLSTA ([dP][dS][dQ][dS][dS][dH][dP][dP][dL][dS][dT][dA]; listed as Homo sapiens) [ST100,059, retro inverso version of ST100,038] | – | 0 | – | – | – | – | – | – | – | clearly inhibit tumor growth | – | < 0.05 | VEGF stimulation was inhibited with increasing doses | biologically active | does not inhibit tumor growth
